According to US20250154109A1, “SODIUM CHANNEL BLOCKING COMPOUNDS, DERIVATIVES THEREOF, AND METHODS OF THEIR USE” (LATIGO BIOTHERAPEUTICS, INC, priority 2022, published 2025):
Read-outs that look alike come from different tables or passages of the source.

Molecular target: human Nav1.8 (Homo sapiens, UniProt Q9Y5Y9)
Assay: SyncroPatch384PE assay (automated patch clamp)
Format: cell-based
Details: human Nav1.8/b3 CHO cells
Protocol: Compounds were tested on recombinant human Nav1.8/b3 stably transfected CHO cells using the SyncroPatch384PE system (Nanion Technologies), an automated patch clamp device. Cells were cultured at 37° C./5% CO2 in Ham's F-12 supplemented with 10% fetal bovine serum, 100 U/mL penicillin G sodium, […] streptomycin sulfate and selection antibiotics (0.01 mg/mL Blasticidin, 0.4 mg/mL Zeocin and 0.25 mg/mL Hygromycin). On the day of the recordings, cells in culture dishes were washed twice with Hank's Balanced Salt Solution (HBSS) and treated with Accutase for approximately 20 minutes. Immediately before use in the SynchroPatch384PE using an 8-hole NPC-384 chip, the cells were washed in HBSS to remove the Accutase and re-suspended in extracellular solution. All experiments were performed at ambient temperature. Intracellular solution contained (mM): CsCl, 50; CsF, 90; MgCl2, 5; EGTA, 1; HEPES, 10; pH adjusted to 7.2 with CsOH. Extracellular solution contained (mM): NaCl, 137; KCl, 4.0; CaCl2), 3.8; MgCl2, 1; HEPES, 10; Glucose, 10; pH adjusted to 7.4 with NaOH. 100 nM tetrodotoxin (TTX) was added to the extracellular solution to block endogenous TTX-sensitive sodium currents.
Compounds were tested in quadruplicate in 0.3% DMSO and 0.03% pluronic Acid. Compounds were diluted 1:3.33 in extracellular solution to create an 8-point concentration response curve. Each plate contained a historical positive control and up to ten compounds. 300 μM tetracaine and 0.3% DMSO+0.03% pluronic acid were used as high and low controls respectively.
Whole cell patch clamp recordings were conducted according to Nanion's standard procedure for SyncroPatch384PE®. Cells were held at a holding potential of −120 mV. A depolarization step to 10 mV for 30 ms was applied (P1 measurement), followed by a hyperpolarization step to −100 mV for 100 ms. An inactivation step at −35 mV for 10 sec was applied before stepping to −100 mV for 20 ms, followed by a step to 10 mV for 30 ms (P2 measurement) and then back to −100 mV for 30 ms. Sweep interval was 15 sec. Following establishment of the whole-cell configuration in extracellular solution, cells were washed in extracellular solution containing 0.3% DMSO and 0.03% pluronic acid to stabilize the baseline current. Compounds were then applied by the SynchroPatch384 PE system into each well and the current was recorded for five minutes in extracellular solution, followed by application of tetracaine to achieve full block at the end of experiment. The potency of the compounds was assessed on two read-outs, resting state block (P1 measurement) or inactivated state block (P2 measurement) to obtain IC50 values. Values were normalized to high (tetracaine) and low (DMSO+pluronic acid) controls.
Examples 1 to 219 and Examples 225 to 236 are assayed using SyncroPatch384PE assay described above.

[1] = inactivated state block (P2 measurement), read-out: P2 IC50
[2] = resting state block (P1 measurement), read-out: P1 IC50

Chain of human Nav1.8 (Q9Y5Y9 whole entry): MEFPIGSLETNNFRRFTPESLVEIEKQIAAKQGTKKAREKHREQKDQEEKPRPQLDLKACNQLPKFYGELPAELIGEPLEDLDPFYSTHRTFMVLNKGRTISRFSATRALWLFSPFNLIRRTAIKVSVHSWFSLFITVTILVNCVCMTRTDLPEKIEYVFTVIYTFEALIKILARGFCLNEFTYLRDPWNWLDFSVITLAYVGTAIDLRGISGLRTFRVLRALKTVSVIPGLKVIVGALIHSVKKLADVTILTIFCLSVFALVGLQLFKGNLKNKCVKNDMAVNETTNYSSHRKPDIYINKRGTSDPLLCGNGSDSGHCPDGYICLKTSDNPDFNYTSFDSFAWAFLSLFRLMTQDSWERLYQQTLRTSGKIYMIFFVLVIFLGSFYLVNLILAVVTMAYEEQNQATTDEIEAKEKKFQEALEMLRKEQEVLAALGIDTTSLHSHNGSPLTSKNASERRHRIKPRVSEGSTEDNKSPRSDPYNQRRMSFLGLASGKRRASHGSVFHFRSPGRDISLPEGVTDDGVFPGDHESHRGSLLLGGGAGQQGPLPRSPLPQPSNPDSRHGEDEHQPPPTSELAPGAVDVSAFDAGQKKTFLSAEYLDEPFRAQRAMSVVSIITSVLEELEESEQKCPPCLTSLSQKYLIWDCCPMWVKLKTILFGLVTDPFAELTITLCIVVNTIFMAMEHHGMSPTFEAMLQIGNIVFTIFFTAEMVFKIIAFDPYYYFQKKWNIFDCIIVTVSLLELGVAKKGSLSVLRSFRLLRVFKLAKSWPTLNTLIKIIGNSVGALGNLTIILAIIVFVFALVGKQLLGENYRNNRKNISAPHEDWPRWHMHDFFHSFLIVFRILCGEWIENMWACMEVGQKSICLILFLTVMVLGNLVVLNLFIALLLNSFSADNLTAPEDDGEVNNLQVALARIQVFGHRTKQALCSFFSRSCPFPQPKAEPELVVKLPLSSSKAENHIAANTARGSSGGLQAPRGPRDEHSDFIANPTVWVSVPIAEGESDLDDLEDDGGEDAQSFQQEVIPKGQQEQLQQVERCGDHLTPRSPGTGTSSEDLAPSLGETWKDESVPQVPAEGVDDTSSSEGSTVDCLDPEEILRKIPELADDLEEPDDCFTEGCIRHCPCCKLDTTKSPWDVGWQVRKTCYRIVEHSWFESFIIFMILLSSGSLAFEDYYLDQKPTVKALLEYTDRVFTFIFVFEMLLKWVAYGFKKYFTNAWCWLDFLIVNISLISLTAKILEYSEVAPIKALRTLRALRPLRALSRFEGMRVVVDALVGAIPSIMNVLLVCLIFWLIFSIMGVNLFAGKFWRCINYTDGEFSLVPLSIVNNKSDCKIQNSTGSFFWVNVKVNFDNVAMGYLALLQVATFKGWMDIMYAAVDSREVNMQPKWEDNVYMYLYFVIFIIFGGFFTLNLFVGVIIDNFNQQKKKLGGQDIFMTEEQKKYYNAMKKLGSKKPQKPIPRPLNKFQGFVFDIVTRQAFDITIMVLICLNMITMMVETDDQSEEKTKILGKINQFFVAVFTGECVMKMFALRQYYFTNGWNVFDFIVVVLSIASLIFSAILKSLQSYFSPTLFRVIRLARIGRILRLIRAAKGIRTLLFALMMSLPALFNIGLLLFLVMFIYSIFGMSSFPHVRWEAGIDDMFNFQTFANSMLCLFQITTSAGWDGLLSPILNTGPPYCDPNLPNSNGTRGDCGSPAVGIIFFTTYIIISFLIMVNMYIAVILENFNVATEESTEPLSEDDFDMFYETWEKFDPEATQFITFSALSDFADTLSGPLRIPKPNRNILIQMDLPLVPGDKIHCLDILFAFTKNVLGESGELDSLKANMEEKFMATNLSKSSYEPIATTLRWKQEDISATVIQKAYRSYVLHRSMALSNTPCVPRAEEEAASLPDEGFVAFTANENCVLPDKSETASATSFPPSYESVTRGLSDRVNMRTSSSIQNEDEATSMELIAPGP

Cc1c(-c2ccccc2)nnc(N2CCCC(F)(F)CC2)c1C(=O)Nc1cccc([S@](C)(=N)=O)c1 [Example 118, (R)-3-(4,4-difluoroazepan-1-yl)-5-methyl-N-(3-(S-methylsulfonimidoyl)phenyl)-6-phenylpyridazine-4-carboxamide]
IC50 [1]: 50 to 100 nM | IC50 [2]: 50 to 100 nM

Cc1c(C(F)(F)F)nnc(N2CCCC(F)(F)CC2)c1C(=O)NC12CC(C(N)=O)(C1)C2 [Example 128, N-(3-carbamoylbicyclo[1.1.1]pentan-1-yl)-3-(4,4-difluoroazepan-1-yl)-5-methyl-6-(trifluoromethyl)pyridazine-4-carboxamide]
IC50 [1]: > 200 nM | IC50 [2]: > 200 nM

Cc1c(Br)cnc(N2CCCC(F)(F)CC2)c1C(=O)Nc1cccc([S@@](C)(=N)=O)c1 [Example 145, (S)-5-bromo-2-(4,4-difluoroazepan-1-yl)-4-methyl-N-(3-(S-methylsulfonimidoyl)phenyl)nicotinamide]
IC50 [1]: ≤ 5 nM | IC50 [2]: ≤ 5 nM

CNS(=N)(=O)c1cc(NC(=O)c2cc(C(F)(F)F)c(C)nc2N2CCCC(F)(F)CC2)ccn1 (stereo not drawn) [Example 107, 2-(4,4-difluoroazepan-1-yl)-6-methyl-N-(2-(N-methylsulfamidimidoyl)pyridine-4-yl)-5-(trifluoromethyl)nicotinamide]
IC50 [1]: ≤ 5 nM | IC50 [2]: ≤ 5 nM

Cc1nc(N2CCCC(F)(F)CC2)c(C(=O)Nc2cccc(S(C)(=N)=O)c2)cc1C(F)(F)F (stereo not drawn) [Example 3, 2-(4,4-difluoroazepan-1-yl)-6-methyl-N-(3-(S-methylsulfonimidoyl)phenyl)-5-(trifluoromethyl)nicotinamide]
IC50 [1]: ≤ 5 nM | IC50 [2]: ≤ 5 nM

Cc1nc(N2CCCC(F)(F)CC2)c(C(=O)Nc2cccc([S@@](C)(=N)=O)c2)cc1C(F)(F)F [Example 5, (S)-2-(4,4-Difluoroazepan-1-yl)-6-methyl-N-(3-(S-methylsulfonimidoyl)phenyl)-5-(trifluoromethyl)nicotinamide]
IC50 [1]: ≤ 5 nM | IC50 [2]: ≤ 5 nM

C[S@@](=N)(=O)c1cccc(NC(=O)c2cc(Cl)c(C(F)(F)F)cc2N2CCCC(F)(F)CC2)c1 [Example 77, (R)-5-chloro-2-(4,4-difluoroazepan-1-yl)-N-(3-(S-methylsulfonimidoyl)phenyl)-4-(trifluoromethyl)benzamide]
IC50 [1]: ≤ 5 nM | IC50 [2]: ≤ 5 nM

Cc1nc(N2CCCC(F)(F)CC2)c(C(=O)Nc2cccc([S@@](C)(=N)=O)c2)c(C)c1C(F)(F)F (single isomer, unassigned) [Example 185]
IC50 [1]: ≤ 5 nM | IC50 [2]: ≤ 5 nM

O=C(Nc1cc[nH]c(=O)c1)c1nnc(C(F)(F)F)cc1N1CCCC(F)(F)CC1 [Example 40, 4-(4,4-Difluoroazepan-1-yl)-N-(2-oxo-1,2-dihydropyridin-4-yl)-6-(trifluoromethyl)pyridazine-3-carboxamide]
IC50 [1]: > 200 nM | IC50 [2]: > 200 nM

Cc1c(Cl)c(C(F)(F)F)nc(N2CCCC(F)(F)CC2)c1C(=O)Nc1cccc([S@@](C)(=N)=O)c1 [Example 108, (S)-5-chloro-2-(4,4-difluoroazepan-1-yl)-4-methyl-N-(3-(S-methylsulfonimidoyl)phenyl)-6-(trifluoromethyl)nicotinamide]
IC50 [1]: ≤ 5 nM | IC50 [2]: ≤ 5 nM

Cc1c(C(F)(F)F)nnc(N2CCCC(F)(F)CC2)c1C(=O)Nc1ccnc(S(=N)(N)=O)c1 (stereo not drawn) [Example 119, 3-(4,4-difluoroazepan-1-yl)-5-methyl-N-(2-sulfamidimidoylpyridin-4-yl)-6-(trifluoromethyl)pyridazine-4-carboxamide]
IC50 [1]: 5 to 50 nM | IC50 [2]: 5 to 50 nM

Cc1c(C(=O)Nc2cccc([S@](C)(=N)=O)c2)c(N2CCCC(F)(F)CC2)nc(C(F)(F)F)c1-c1cnn(C)c1 [Example 133, (R)-2-(4,4-difluoroazepan-1-yl)-4-methyl-5-(1-methyl-1H-pyrazol-4-yl)-N-(3-(S-methylsulfonimidoyl)phenyl)-6-(trifluoromethyl)nicotinamide]
IC50 [1]: ≤ 5 nM | IC50 [2]: ≤ 5 nM

Cc1nc(N2CCCC(F)(F)CC2)c(C(=O)Nc2cccc([S@](C)(=N)=O)c2)cc1Cl [Example 16, (R)-5-chloro-2-(4,4-difluoroazepan-1-yl)-6-methyl-N-(3-(S-methylsulfonimidoyl)phenyl)nicotinamide]
IC50 [1]: ≤ 5 nM | IC50 [2]: ≤ 5 nM

CS(=N)(=O)c1cccc(NC(=O)c2cc(C(F)(F)F)nnc2N2CCC3(CC2)CC3)c1 (stereo not drawn) [Example 14, N-(3-(S-methylsulfonimidoyl)phenyl)-3-(6-azaspiro[2.5]octan-6-yl)-6-(trifluoromethyl)pyridazine-4-carboxamide]
IC50 [1]: > 200 nM | IC50 [2]: > 200 nM

Cc1ccsc1-c1cnc(N2CCCC(F)(F)CC2)c(C(=O)Nc2cccc(S(C)(=N)=O)c2)c1C (stereo not drawn) [Example 113, 2-(4,4-difluoroazepan-1-yl)-4-methyl-N-(3-(S-methylsulfonimidoyl)phenyl)-5-(3-methylthiophen-2-yl)nicotinamide]
IC50 [1]: ≤ 5 nM | IC50 [2]: ≤ 5 nM

COc1ccc(-c2cnc(N3CCCC(F)(F)CC3)c(C(=O)Nc3cccc(S(C)(=N)=O)c3)c2C)cc1 (stereo not drawn) [Example 93, 2-(4,4-difluoroazepan-1-yl)-5-(4-methoxyphenyl)-4-methyl-N-(3-(S-methylsulfonimidoyl)phenyl)nicotinamide]
IC50 [1]: ≤ 5 nM | IC50 [2]: ≤ 5 nM

CS(=N)(=O)c1cccc(NC(=O)c2ccc(CC3CC3)nc2N2CCC3(CC2)CC3)c1 (stereo not drawn) [Example 80, 6-(cyclopropylmethyl)-N-(3-(S-methylsulfonimidoyl)phenyl)-2-(6-azaspiro[2.5]octan-6-yl)nicotinamide]
IC50 [1]: 5 to 50 nM | IC50 [2]: 5 to 50 nM

Cc1c(Br)c(C(F)(F)F)nc(N2CCCC(F)(F)CC2)c1C(=O)Nc1cccc([S@](C)(=N)=O)c1 [Example 130, (R)-5-bromo-2-(4,4-difluoroazepan-1-yl)-4-methyl-N-(3-(S-methylsulfonimidoyl)phenyl)-6-(trifluoromethyl)nicotinamide]
IC50 [1]: ≤ 5 nM | IC50 [2]: ≤ 5 nM

Cc1c(C(=O)Nc2cccc([S@](C)(=N)=O)c2)c(N2CCCC(F)(F)CC2)nc(C(F)(F)F)c1-c1ccc(C#N)cc1 [Example 131, (R)-5-(4-cyanophenyl)-2-(4,4-difluoroazepan-1-yl)-4-methyl-N-(3-(S-methylsulfonimidoyl)phenyl)-6-(trifluoromethyl)nicotinamide]
IC50 [1]: ≤ 5 nM | IC50 [2]: ≤ 5 nM

Cc1c(-c2cnn(C(C)C)c2)cnc(N2CCCC(F)(F)CC2)c1C(=O)Nc1cccc([S@](C)(=N)=O)c1 [Example 160, (R)-2-(4,4-difluoroazepan-1-yl)-5-(1-isopropyl-1H-pyrazol-4-yl)-4-methyl-N-(3-(S-methylsulfonimidoyl)phenyl)nicotinamide]
IC50 [1]: 5 to 50 nM | IC50 [2]: 5 to 50 nM

CNCC(=O)N=[S@](C)(=O)c1cccc(NC(=O)c2cc(Cl)c(C(F)(F)F)cc2N2CCCC(F)(F)CC2)c1 [Example 228, (R)-5-chloro-2-(4,4-difluoroazepan-1-yl)-N-(3-(S-methyl-N-(methylglycyl)sulfonimidoyl)phenyl)-4-(trifluoromethyl)benzamide]
IC50 [1]: ≤ 5 nM | IC50 [2]: ≤ 5 nM

Cc1c(-c2cnn(C)c2)cnc(N2CCCC(F)(F)CC2)c1C(=O)Nc1cccc([S@@](C)(=O)=NCCN)c1 [Example 210, (R)-N-(3-(N-(2-aminoethyl)-S-methylsulfonimidoyl)phenyl)-2-(4,4-difluoroazepan-1-yl)-4-methyl-5-(1-methyl-1H-pyrazol-4-yl)nicotinamide 2,2,2-trifluoroacetate]
IC50 [1]: 5 to 50 nM | IC50 [2]: 5 to 50 nM

Cc1c(-c2cnn(C)c2)cnc(N2CCCC(F)(F)CC2)c1C(=O)Nc1ccc(F)c([S@](C)(=N)=O)c1 [Example 214, (R)-2-(4,4-difluoroazepan-1-yl)-N-(4-fluoro-3-(S-methylsulfonimidoyl)phenyl)-4-methyl-5-(1-methyl-1H-pyrazol-4-yl)nicotinamide]
IC50 [1]: 100 to 200 nM | IC50 [2]: 100 to 200 nM

Cc1c(C(F)(F)F)cnc(N2CCCC(F)(F)CC2)c1C(=O)Nc1cccc([S@@](C)(=O)=NC(=O)CN)c1 [Example 181, (R)-2-(4,4-difluoroazepan-1-yl)-N-(3-(N-glycyl-S-methylsulfonimidoyl)phenyl)-4-methyl-5-(trifluoromethyl)nicotinamide]
IC50 [1]: ≤ 5 nM | IC50 [2]: ≤ 5 nM
